# Laboratory results published in US7273845B2, “Polymeric prodrugs of vancomycin” (priority 2002, dated 2007).
# Key:
# E. faecalis (29212) = test: Minimum Inhibitory Concentration (MIC), E. faecalis (29212); format: cell-based; conditions: vancomycin equivalents
# [1] = Circulatory pharmacokinetics after single intravenous dose in rats; conditions: for Vss: 50 mg/kg
# Experimental: PEG-vancomycin conjugates containing a 50 mg/kg vancomycin equivalent dose and 50 mg/kg native vancomycin (1) were injected as a single intravenous dose into the tail vein of conscious rats at a rate of 0.5 ml/min [˜2.5 min]. […] A 250 μL bled was done on rats sedated with 30% O2/70% CO2 via the retro-orbital plexus into EDTA containing vials. Blood was immediately processed for plasma and frozen on dry ice. Plasma samples were stored at −80° C. until analyzed. The plasma samples were analyzed by a fluorescence polarization immunoassay using an Abbott Laboratories TDx analyzer within two hours of thawing. A single compartment model using WinNonlin™ software was used to determine the-plasma pharmacokinetic parameters.
# S. aureus (29214) = test: Minimum Inhibitory Concentration (MIC), S. aureus (29214); format: cell-based; conditions: vancomycin equivalents
# E.coli (25922) = test: Minimum Inhibitory Concentration (MIC), E.coli (25922); format: cell-based; conditions: vancomycin equivalents
# S. aureus (Smith) = test: Sustained anti-infective protection, compound given before LD90-100 S. aureus (Smith) challenge, survival; format: in vivo, ICR Swiss mice
# Experimental: A second study was also performed to examine the sustained anti-infective protection of PEG-vancomycin conjugate 22. ICR Swiss mice were administered with either 100 mg/kg vancomycin equivalents of 22, 100 mg/kg vancomycin, or saline in two equally split doses 1½ hours apart. Ten mice per treatment group were used.
# S. aureus (6538P) = test: Minimum Inhibitory Concentration (MIC), S. aureus (6538P); format: cell-based; conditions: vancomycin equivalents
# [2] = test system: Staphylococcus aureus (Smith); test: LD90-100 examination, compound given after S. aureus (Smith) challenge, survival; format: in vivo, ICR Swiss mice; conditions: 100 mg/kg vancomycin equivalents in two equal split doses 1 and 2.5 h following LD90-100 S. aureus (Smith) inoculation; survival after 1 week
# Experimental: Studies examining the in vivo anti-infective potential of PEG-vancomycin conjugates in ICR Swiss mice were performed. […] As controls, S. aureus (Smith) challenged mice were administered either saline or 100 mg/kg vancomycingiven in equal split doses. Ten mice were used per compound tested.
# [3] = 50 mg/kg vancomycin equivalents i.v.
# [4] = intravenous bolus 50 mg/kg vancomycin equivalents, plasma
substance,measurement,setting,value
vancomycin [Compound 1],MIC E. faecalis (29212),E. faecalis (29212),6.2 µg/mL
same,Cmax,[1]; [3],162 µg/mL
same,area under the curve (AUC),[1]; [3],78800 ng·h/mL
same,circulatory half-life (t1/2),[1]; [3],20.4 min
same,clearance (CL),[1]; [3],10.7 mL/min/kg
same,AUC,[1]; [4],78800 ± 10800 ng·h/mL
same,CL,[1]; [4],10.7 ± 1.4 mL/min/kg
same,Cmax,[1]; [4],162.0 ± 9.0 µg/mL
same,Plasma Half-life,[1]; [4],20.4 ± 2.4 min
same,Vss,[1]; [4],0.3093 ± 0.0172 L/kg
same,Vss,"[1]; intravenous bolus 50 mg/kg vancomycin equivalents, plasma, listed as Vancomycin",0.309 L/kg
same,MIC S. aureus (29214),S. aureus (29214),3.1 µg/mL
same,MIC E.coli (25922),E.coli (25922),>100 µg/mL
same,anti-microbial protection against later S. aureus challenge (in words),"S. aureus (Smith); 100 mg/kg vancomycin equivalents given before challenge, ICR Swiss mice",no protection
same,Pre-Challenge % Survival (mice),"S. aureus (Smith); 100 mg/kg vancomycin equivalents in two split doses 1½ h apart, given prior to LD90-100 S. aureus (Smith) challenge, survival after 1 week",0%
same,MIC S. aureus (6538P),S. aureus (6538P),1.6 µg/mL
same,Post Challenge % Survival (mice),[2],100%
